Reference: PMC12396409, “Screening and hit evaluation of a microbial metabolite library against the pathogenic Plasmodium falciparum and Toxoplasma gondii parasites” (International Journal for Parasitology: Drugs and Drug …, 2025)
Read-outs that look alike come from different tables or passages of the source.

Columns and labels:
[1] = test system: T. gondii RH strain (RH-Tub-eYFP) tachyzoites; assay: microbe, parasite or virus in culture; type: cell-based, Toxoplasma gondii; conditions: 72 h, % growth; for percent parasite growth at 2 µg/mL: Toxoplasma gondii
[2] = test system: P. falciparum 3D7 parasites; assay: P. falciparum growth inhibition assay, 2-cycle (120 h treatment), delayed-death screen and dose-response; type: cell-based, Plasmodium falciparum; conditions: % growth; for activity at 2 µg/mL: Plasmodium falciparum, 3D7
[3] = test system: P. falciparum 3D7 parasites; assay: P. falciparum growth inhibition assay, 1-cycle (72 h treatment), SYBR DNA staining (library screen at 2 μg/mL and dose-response); type: cell-based, Plasmodium falciparum; conditions: for Pf_72h_%Growth_Rep1 / Pf_72h_%Growth_Rep2 / activity at 2 µg/mL: % growth; for activity at 2 µg/mL: Plasmodium falciparum, 3D7
[4] = T. gondii, parasite screen 2 μg/mL, replicate 1
[5] = T. gondii, parasite screen 2 μg/mL, replicate 2
[6] = P. falciparum, 120 h, parasite screen 2 μg/mL, replicate 1
[7] = P. falciparum, 120 h, parasite screen 2 μg/mL, replicate 2
[8] = P. falciparum, 72 h, parasite screen 2 μg/mL, replicate 1
[9] = P. falciparum, 72 h, parasite screen 2 μg/mL, replicate 2
[10] = library screen at 2 μg/mL, replicate 1
[11] = library screen at 2 μg/mL, replicate 2
[12] = library screen at 2 μg/mL, 120 h, replicate 1
[13] = library screen at 2 μg/mL, 120 h, replicate 2
[14] = library screen at 2 μg/mL, 72 h, replicate 1
[15] = library screen at 2 μg/mL, 72 h, replicate 2

With COc1cc(O)c2c(c1)/C=C/C[C@H](O)[C@H](O)C(=O)/C=C/C[C@H](C)OC2=O [BIA-O1897] the Tg_72h_%Growth_Rep1 ([1]; T. gondii, parasite screen at 2 μg/mL, replicate 1) was 58.83%, the Tg_72h_%Growth_Rep2 ([1]; T. gondii, parasite screen at 2 μg/mL, replicate 2) was 79.20% and the Pf_120h_%Growth_Rep1 ([2]; P. falciparum 3D7, 120 h, parasite screen at 2 μg/mL, replicate 1) was 71.81%. It also gave a Pf_120h_%Growth_Rep2 ([2]; P. falciparum 3D7, 120 h, parasite screen at 2 μg/mL, replicate 2) of 72.01%, a Pf_72h_%Growth_Rep1 ([3]; P. falciparum 3D7, 72 h, parasite screen at 2 μg/mL, replicate 1) of 68.65% and a Pf_72h_%Growth_Rep2 ([3]; P. falciparum 3D7, 72 h, parasite screen at 2 μg/mL, replicate 2) of 68.31%.
In the case of CC[C@H]1CCC[C@H](O)[C@@H](C)C(=O)C2=C[C@@H]3[C@@H](C=C[C@@H]4C[C@@H](O)C[C@@H]34)[C@@H]2CC(=O)O1 [Spinosyn A aglycone], the Tg_72h_%Growth_Rep1 [1, 4] is reported as 107.96%, the Tg_72h_%Growth_Rep2 [1, 5] is reported as 78.11% and the Pf_120h_%Growth_Rep1 [2, 6] is reported as 95.52%. The Pf_120h_%Growth_Rep2 [2, 7] was 13.75%, the IC50 ([3]; 3D7, 72 h treatment, mean ± S.D., n ≥ 3, read-out: IC50 (μM), P. falciparum) was over 1 µM and the Pf_72h_%Growth_Rep1 [3, 8] was 91.52%. For the same compound, the Pf_72h_%Growth_Rep2 [3, 9] was 38.04% and the “Screen (P. falciparum)” value ([3]; library screen at 2 μg/mL, 3D7, 72 h, DD from the 120 h timepoint) was “I”.
C=C1NC(=O)c2nc(oc2C)C(=C)NC(=O)[C@H](C(C)(C)O)NC(=O)C(=C)NC(=O)c2nc(oc2C)/C(=C/C)NC(=O)[C@H]([C@@H](C)O)NC(=O)c2csc(n2)-c2ccc(C(N)=O)nc2-c2coc(n2)C(=C)NC1=O [Berninamycin D] was tested, and the Tg_72h_%Growth_Rep1 [1, 10] was 81.74%, the Tg_72h_%Growth_Rep2 [1, 11] was 94.54% and the Pf_120h_%Growth_Rep1 [2, 12] was 147.66%. It also gave a Pf_120h_%Growth_Rep2 [2, 13] of 98.89%, a Pf_72h_%Growth_Rep1 [3, 14] of 102.21% and a Pf_72h_%Growth_Rep2 [3, 15] of 89.93%.
In the case of COC1=CC(=O)C[C@@H](C)[C@]12Oc1c(Cl)c(OC)cc(OC)c1C2=O [BIA-G1212], the Tg_72h_%Growth_Rep1 ([1]; T. gondii RH, library screen at 2 μg/mL, replicate 1) is reported as 123.15%, the Tg_72h_%Growth_Rep2 ([1]; T. gondii RH, library screen at 2 μg/mL, replicate 2) is reported as 96.50% and the Pf_120h_%Growth_Rep1 ([2]; P. falciparum 3D7, 120 h, library screen at 2 μg/mL, replicate 1) is reported as 92.82%. The Pf_120h_%Growth_Rep2 ([2]; P. falciparum 3D7, 120 h, library screen at 2 μg/mL, replicate 2) was 104.36%, the Pf_72h_%Growth_Rep1 ([3]; P. falciparum 3D7, 72 h, library screen at 2 μg/mL, replicate 1) was 92.41% and the Pf_72h_%Growth_Rep2 ([3]; P. falciparum 3D7, 72 h, library screen at 2 μg/mL, replicate 2) was 108.96%.
For CC(C)C[C@H](NC(=O)[C@@H](O)[C@H](N)Cc1ccccc1)C(=O)O [Bestatin], the percent parasite growth at 2 µg/mL ([1]; library screen at 2 μg/mL, replicate 1, read-out: Tg_72h_%Growth_Rep1) was 89.8%, the percent parasite growth at 2 µg/mL ([1]; library screen at 2 μg/mL, replicate 2, read-out: Tg_72h_%Growth_Rep2) was 102% and the activity at 2 µg/mL ([2]; library screen at 2 μg/mL, 120 h, replicate 1, read-out: Pf_120h_%Growth_Rep1) was 3.72%. The activity at 2 µg/mL ([2]; library screen at 2 μg/mL, 120 h, replicate 2, read-out: Pf_120h_%Growth_Rep2) was 8.03%, the activity at 2 µg/mL ([3]; library screen at 2 μg/mL, 72 h, replicate 1, read-out: Pf_72h_%Growth_Rep1) was 10.9% and the activity at 2 µg/mL ([3]; library screen at 2 μg/mL, 72 h, replicate 2, read-out: Pf_72h_%Growth_Rep2) was 3.89%.
With COc1cc2c3c(c1O)-c1c(cc(O)c(OC)c1OC)CCC3N(C)CC2 (centres unmarked) [Floramultine] the Tg_72h_%Growth_Rep1 [1, 10] was 115.84%, the Tg_72h_%Growth_Rep2 [1, 11] was 93.93% and the Pf_120h_%Growth_Rep1 [2, 12] was 85.60%. For the same compound, the Pf_120h_%Growth_Rep2 [2, 13] was 101.00%, the Pf_72h_%Growth_Rep1 [3, 14] was 85.55% and the Pf_72h_%Growth_Rep2 [3, 15] was 120.01%.
Cc1cc(O)c2c3c1C(=O)C=C1C(C)(C)C(=O)c4c(O)cc(O)c(c4C13O)C2=O (centres unmarked) [Resistoflavine] showed a Tg_72h_%Growth_Rep1 [1, 4] of 250.44%, a Tg_72h_%Growth_Rep2 [1, 5] of 135.44% and a Pf_120h_%Growth_Rep1 [2, 6] of 116.77%. The Pf_120h_%Growth_Rep2 [2, 7] was 93.07%, the Pf_72h_%Growth_Rep1 [3, 8] was 97.04% and the Pf_72h_%Growth_Rep2 [3, 9] was 109.63%.
CCCCC/C=C/C=C\C=C/[C@H](O)[C@H](C)[C@H](C/C=C/[C@@H]1OC(=O)C=C[C@@H]1O)OS(=O)(=O)[O-].[Na+] [Sultriecin] was tested, and the Tg_72h_%Growth_Rep1 [1, 4] was 105.98%, the Tg_72h_%Growth_Rep2 [1, 5] was 90.75% and the Pf_120h_%Growth_Rep1 [2, 6] was 87.78%. It also gave a Pf_120h_%Growth_Rep2 [2, 7] of 130.19%, a Pf_72h_%Growth_Rep1 [3, 8] of 90.74% and a Pf_72h_%Growth_Rep2 [3, 9] of 116.83%.
